Measurements published in patent US11453677B2 (priority 2016, dated 2022).

How the values were obtained:
Test in all cases: cells
Format in all cases: cell-based
[1] = test system: influenza A virus minigenome (PB2, PB1, PA, NP) RNP_Alaska in 293T cells; conditions: HEK-293T, 48 h, read-out: RNP_Alaska EC50
[2] = test system: influenza A virus minigenome (PB2, PB1, PA, NP) RNP_CAL in 293T cells; conditions: HEK-293T, 48 h, read-out: RNP_CAL_EC50
[3] = test system: influenza virus minigenome (PB2, PB1, PA, NP) RNP_Hubei in 293T cells; conditions: unidentified influenza virus, HEK-293T, 48 h, read-out: RNP_Hubei EC50

O=c1cnn2c(c1O)-c1nccn1CC2C(c1ccccc1)c1ccccc1 (stereo not shown) [Example 1, 6-Benzhydryl-11-hydroxy-5H-imidazo[2′,1′:3,4]pyrazino[1,2-b]pyridazin-10(6H)-one]
EC50 [1]: 130 nM
EC50 [2]: 110 nM
EC50 [3]: 110 nM

O=c1cnn2c(c1O)-c1nccn1CC2C(c1cccc(F)c1)c1cccc(F)c1 (stereo not shown) [Example 2, 6-(bis(3-fluorophenyl)methyl)-11-hydroxy-5,6-dihydro-10H-imidazo[2′,1′:3,4]pyrazino[1,2-b]pyridazin-10-one]
EC50 [1]: 110 nM
EC50 [2]: 110 nM
EC50 [3]: 90 nM

O=c1cnn2c(c1O)-c1ncnn1CC2C(c1ccccc1)c1ccccc1 (stereo not shown) [Example 3, 6-benzhydryl-11-hydroxy-5,6-dihydro-10H-[1,2,4]triazolo[5′,1′:3,4]pyrazino[1,2-b]pyridazin-10-one]
EC50 [1]: 1400 nM
EC50 [2]: 1100 nM
EC50 [3]: 790 nM

O=c1ccn2c(c1O)-c1nccn1C[C@@H]2C(c1ccccc1)c1ccccc1 [Example 4, (S)-6-Benzhydryl-11-hydroxy-5H-imidazo[1,2-a]pyrido[2,1-c]pyrazin-10(6H)-one]
EC50 [1]: 180 nM
EC50 [2]: 160 nM
EC50 [3]: 90 nM

O=c1ccn2c(c1O)-c1ncc(Cl)n1C[C@@H]2C(c1ccccc1)c1ccccc1 [Example 5, (S)-6-Benzhydryl-3-chloro-11-hydroxy-5,6-dihydro-10H-imidazo[1,2-a]pyrido[2,1-c]pyrazin-10-one]
EC50 [1]: 220 nM
EC50 [2]: 100 nM
EC50 [3]: 180 nM

O=c1ccn2c(c1O)-c1nccn1CN2C(c1ccccc1)c1ccccc1 [Example 6, 6-benzhydryl-11-hydroxy-5H-imidazo[1,2-d]pyrido[2,1-f][1,2,4]triazin-10(6H)-one]
EC50 [1]: 150 nM
EC50 [2]: 190 nM
EC50 [3]: 100 nM

O=c1ccn2c(c1O)-c1ncc(Br)n1C[C@@H]2C(c1ccccc1)c1ccccc1 [Example 7, (S)-6-benzhydryl-3-bromo-11-hydroxy-5H-imidazo[1,2-a]pyrido[2,1-c]pyrazin-10(6H)-one]
EC50 [1]: 140 nM
EC50 [2]: 170 nM
EC50 [3]: 160 nM

O=c1ccn2c(c1O)-c1ncc(C3CC3)n1C[C@@H]2C(c1ccccc1)c1ccccc1 [Example 8, (S)-6-benzhydryl-3-cyclopropyl-11-hydroxy-5H-imidazo[1,2-a]pyrido[2,1-c]pyrazin-10(6H)-one]
EC50 [1]: 490 nM
EC50 [2]: 150 nM
EC50 [3]: 530 nM

CCc1cnc2n1C[C@H](C(c1ccccc1)c1ccccc1)n1ccc(=O)c(O)c1-2 [Example 9, (S)-6-benzhydryl-3-ethyl-11-hydroxy-5H-imidazo[1,2-a]pyrido[2,1-c]pyrazin-10(6H)-one]
EC50 [1]: 850 nM
EC50 [2]: 580 nM
EC50 [3]: 590 nM

O=c1cnn2c(c1O)-c1nccn1CC2C(c1ccc(Cl)cc1)c1ccc(Cl)cc1 (stereo not shown) [Example 10, 6-(bis(4-chlorophenyl)methyl)-11-hydroxy-5H-imidazo[2′,1′:3,4]pyrazino[1,2-b]pyridazin-10(6H)-one]
EC50 [1]: 290 nM
EC50 [2]: 320 nM
EC50 [3]: 820 nM

O=c1cnn2c(c1O)-c1nccn1CC2C(c1cccc(Cl)c1)c1cccc(Cl)c1 (stereo not shown) [Example 11, 6-(bis(3-chlorophenyl)methyl)-11-hydroxy-5H-imidazo[2′,1′:3,4]pyrazino[1,2-b]pyridazin-10(6H)-one]
EC50 [1]: 160 nM
EC50 [2]: 80 nM
EC50 [3]: 90 nM

O=c1cnn2c(c1O)-c1nccn1CC2C(c1ccc(F)cc1)c1ccc(F)cc1 (stereo not shown) [Example 12, 6-(bis(4-fluorophenyl)methyl)-11-hydroxy-5H-imidazo[2′,1′:3,4]pyrazino[1,2-b]pyridazin-10(6H)-one]
EC50 [1]: 70 nM
EC50 [2]: 800 nM
EC50 [3]: 60 nM

Cc1cnc2n1C[C@H](C(c1ccccc1)c1ccccc1)n1ccc(=O)c(O)c1-2 [Example 13, (S)-6-benzhydryl-11-hydroxy-3-methyl-5H-imidazo[1,2-a]pyrido[2,1-c]pyrazin-10(6H)-one]
EC50 [1]: 570 nM
EC50 [2]: 310 nM
EC50 [3]: 300 nM

Cc1nc2n(c1C)C[C@H](C(c1ccccc1)c1ccccc1)n1ccc(=O)c(O)c1-2 [Example 14, (S)-6-benzhydryl-11-hydroxy-2,3-dimethyl-5H-imidazo[1,2-a]pyrido[2,1-c]pyrazin-10(6H)-one]
EC50 [1]: 6700 nM
EC50 [2]: 4200 nM
EC50 [3]: 5500 nM

O=c1cnn2c(c1O)-c1nccn1C[C@@H]2C(c1cccc(Cl)c1)c1cccc(Cl)c1 [Example 15, (S)-6-(bis(3-chlorophenyl)methyl)-11-hydroxy-5H-imidazo [2′,1′:3,4] pyrazino [1,2-b]pyridazin-10(6H)-one]
EC50 [1]: 40 nM
EC50 [2]: 25 nM
EC50 [3]: 19 nM

O=c1cnn2c(c1O)-c1nccn1C[C@H]2C(c1cccc(Cl)c1)c1cccc(Cl)c1 [Example 16, (R)-6-(bis(3-chlorophenyl)methyl)-11-hydroxy-5H-imidazo[2′,1′:3,4] pyrazino [1,2-b]pyridazin-10(6H)-one]
EC50 [1]: 960 nM
EC50 [2]: 820 nM
EC50 [3]: 950 nM

O=c1cnn2c(c1O)-c1nccn1C[C@@H]2[C@H](c1ccccc1)c1ccc(F)cc1 [Example 17, (S)-6-((R)-(4-fluorophenyl)(phenyl)methyl)-11-hydroxy-5,6-dihydro-10H-imidazo[2′,1′:3,4]pyrazino[1,2-b]pyridazin-10-one]
EC50 [1]: 30 nM
EC50 [2]: 10 nM
EC50 [3]: 70 nM

O=c1cnn2c(c1O)-c1nccn1C[C@@H]2[C@@H](c1ccccc1)c1ccc(F)cc1 [Example 18, (S)-6-((S)-(4-fluorophenyl)(phenyl)methyl)-11-hydroxy-5,6-dihydro-10H-imidazo[2′,1′:3,4]pyrazino[1,2-b]pyridazin-10-one]
EC50 [1]: 130 nM
EC50 [2]: 130 nM
EC50 [3]: 160 nM

O=c1cnn2c(c1O)-c1nccn1C[C@@H]2[C@H](c1ccc(F)cc1)c1cncc(F)c1 [Example 19, (S)-6-((R)-(4-fluorophenyl)(5-fluoropyridin-3-yl)methyl)-11-hydroxy-5,6-dihydro-10H-imidazo[2′,1′:3,4]pyrazino[1,2-b]pyridazin-10-one]
EC50 [1]: 230 nM
EC50 [2]: 260 nM
EC50 [3]: 490 nM

O=c1cnn2c(c1O)-c1nccn1C[C@@H]2[C@H](c1ccc(F)cc1)c1ccc(C(F)(F)F)nc1 [Example 20, (S)-6-((R)-(4-fluorophenyl)(6-(trifluoromethyl)pyridin-3-yl)methyl)-11-hydroxy-5,6-dihydro-10H-imidazo[2′,1′:3,4]pyrazino[1,2-b]pyridazin-10-one]
EC50 [1]: 690 nM
EC50 [2]: 720 nM
EC50 [3]: 740 nM

O=c1cnn2c(c1O)-c1nccn1C[C@@H]2[C@@H](c1ccc(F)cc1)c1cccc(C(F)(F)F)c1 [Example 21, (S)-6-((S)-(4-fluorophenyl)(3-(trifluoromethyl)phenyl)methyl)-11-hydroxy-5,6-dihydro-10H-imidazo[2′,1′:3,4]pyrazino[1,2-b]pyridazin-10-one]
EC50 [1]: 71 nM
EC50 [2]: 52 nM
EC50 [3]: 110 nM

O=c1cnn2c(c1O)-c1nccn1C[C@@H]2C(c1ccc(F)cc1)c1ccc(F)cc1 [Example 22, (S)-6-(bis(4-fluorophenyl)methyl)-11-hydroxy-5,6-dihydro-10H-imidazo[2′,1′:3,4]pyrazino[1,2-b]pyridazin-10-one]
EC50 [1]: 27 nM
EC50 [2]: 82 nM
EC50 [3]: 10 nM

O=c1cnn2c(c1O)-c1nccn1C[C@@H]2C(c1cccc(F)c1)c1cccc(F)c1 [Example 23, (S)-6-(bis(3-fluorophenyl)methyl)-11-hydroxy-5,6-dihydro-10H-imidazo[2′,1′:3,4]pyrazino[1,2-b]pyridazin-10-one]
EC50 [1]: 23 nM
EC50 [2]: 39 nM
EC50 [3]: 36 nM

O=c1cnn2c(c1O)-c1nccn1C[C@@H]2[C@@H](c1ccc(F)cc1)c1cccc(F)c1 [Example 24, (S)-6-((S)-(3-fluorophenyl)(4-fluorophenyl)methyl)-11-hydroxy-5,6-dihydro-10H-imidazo[2′,1′:3,4]pyrazino[1,2-b]pyridazin-10-one]
EC50 [1]: 52 nM
EC50 [2]: 36 nM
EC50 [3]: 59 nM

O=c1cnn2c(c1O)-c1nccn1C[C@@H]2[C@@H](c1ccc(F)cc1)c1ccc(F)c(F)c1 [Example 25, (S)-6-((S)-(3,4-difluorophenyl)(4-fluorophenyl)methyl)-11-hydroxy-5H-imidazo[2′,1′:3,4]pyrazino[1,2-b]pyridazin-10(6H)-one]
EC50 [1]: 62 nM
EC50 [2]: 56 nM
EC50 [3]: 100 nM

O=c1cnn2c(c1O)-c1nccn1C[C@@H]2[C@H](c1ccc(F)cc1)c1cccc(F)c1 [Example 26, (S)-6-((R)-(3-fluorophenyl)(4-fluorophenyl)methyl)-11-hydroxy-5,6-dihydro-10H-imidazo[2′,1′:3,4]pyrazino[1,2-b]pyridazin-10-one]
EC50 [1]: 27 nM
EC50 [2]: 38 nM
EC50 [3]: 51 nM

Cc1cc(F)ccc1[C@H](c1ccc(F)cc1)[C@H]1Cn2ccnc2-c2c(O)c(=O)cnn21 [Example 27, (S)-6-((S)-(4-fluoro-2-methylphenyl)(4-fluorophenyl)methyl)-11-hydroxy-5,6-dihydro-10H-imidazo[2′,1′:3,4]pyrazino[1,2-b]pyridazin-10-one]
EC50 [1]: 50 nM
EC50 [2]: 50 nM
EC50 [3]: 27 nM

O=c1ccn2c(c1O)-c1nccn1C(C1CC1)N2C(c1ccccc1)c1ccccc1 (stereo not shown) [Example 73, 6-benzhydryl-5-cyclopropyl-11-hydroxy-5,6-dihydro-10H-imidazo[1,2-d]pyrido[2,1-f][1,2,4]triazin-10-one]
EC50 [1]: 390 nM
EC50 [2]: 170 nM

O=c1ccn2c(c1O)-c1ncsc1CN2C(c1ccccc1)c1ccccc1 [Example 81, 5-benzhydryl-10-hydroxy-4,5-dihydro-9H-pyrido[1,2-b]thiazolo[4,5-d]pyridazin-9-one]
EC50 [1]: 2200 nM
EC50 [2]: 7000 nM
